Numbering of substitutions follows the chain as printed. Where two headings read alike, the source gives them in different places.

For one assay, the target named is T338G Src (Gallus gallus, UniProt P00523, T338G). Put plainly: In vitro kinase assay, T338G Src. In kind it is biochemical. The protocol: (§1) Kinase reactions were initiated by the addition of […] cold ATP supplemented with 5 mCi γ^32P ATP and allowed to proceed at room temperature (RT). At 10 minutes […] of the reactions were spotted onto phosphocellulose sheets (P81, Whatman) and subsequently soaked in wash buffer (1.0% (v/v) phosphoric acid). The sheets were washed five times in buffer, dried, and transferred radioactivity was measured by phosphorimaging using a TyphoonTM scanner (Molecular Dynamics). Radioactive counts were quantified using ImageQuantTM software, and titration data were fit to a sigmoidal dose response to derive IC50 values using the Prism® software package. Dose responses were based on a 12 point inhibitor titration, using 1⁄3 dilutions starting from […]. Experiments were completed 2-4 times to derive mean values.

Another assay addresses T1, Abl (Homo sapiens, UniProt P00519).
T1 sequence (P00519 242-493 limits assumed): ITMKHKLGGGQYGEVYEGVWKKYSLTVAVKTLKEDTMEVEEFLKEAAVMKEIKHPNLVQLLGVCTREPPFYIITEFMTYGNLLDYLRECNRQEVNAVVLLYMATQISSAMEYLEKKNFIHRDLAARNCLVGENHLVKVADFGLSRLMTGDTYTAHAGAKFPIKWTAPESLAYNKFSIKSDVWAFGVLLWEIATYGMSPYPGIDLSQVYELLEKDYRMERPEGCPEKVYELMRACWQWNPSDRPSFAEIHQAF
The assay can be described thus: In vitro kinase assay (32P peptide phosphorylation), WT Abl. In kind it is biochemical.

A further assay concerns the target T2, T315I Abl (Homo sapiens, UniProt P00519, T315I).
T2 sequence (P00519 242-493 T315I limits assumed): T1 sequence (P00519 242-493 limits assumed) with T74I
Put plainly: In vitro kinase assay, T315I Abl. In kind it is biochemical. The settings on record: Table 1b. The protocol: as §1

The next assay has as its target T3, T315A Abl (Homo sapiens, UniProt P00519, T315A).
T3 sequence (P00519 242-493 T315A limits assumed): T1 sequence (P00519 242-493 limits assumed) with T74A
Put plainly: In vitro kinase assay, T315A Abl. In kind it is biochemical. The protocol: as §1

In a further assay the target is c-Src (Gallus gallus, UniProt P00523). Put plainly: In vitro kinase assay (32P peptide phosphorylation), WT Src. In kind it is biochemical.
The test system of assay [1] is Bcr-Abl transduced BaF3 cells. Put plainly: Cell proliferation (Resazurin) of Bcr-Abl transduced BaF3 cells. The settings on record: two day treatment, without IL-3. In kind it is cell-based. In general terms: Resazurin is reduced to fluorescent resorufin, in cell work by metabolically active cells.
From the text: The Bcr-Abl oncogene was transduced into BaF3 cells, rendering them IL-3-independent. “IL-3” refers to interleukin 3 which in human maps to gene locus 5q31.1, as known in the art. Recombinant IL-3 is available commercially. BaF3 is a hematopoietic cell line that is normally dependent on IL-3 for growth and proliferation. However, through expression of activated Bcr-Abl, the cells become transformed to an IL-3 independent state. In this assay, cell proliferation is directly correlated to the activity of Bcr-Abl. […] The parental BaF3 cells, but not the Bcr-Abl transduced cells, were grown in the presence of recombinant IL-3 during the time course of this experiment. After the two day treatment, cell proliferation was quantified using the dye Resazurin, which is converted into a fluorescently detectable form only when metabolized by living cells.
The subject of the next assay is parental BaF3 cells. The assay can be described thus: Cell proliferation (Resazurin) of parental BaF3 cells. In kind it is cell-based. The settings on record: grown with recombinant IL-3; especially at 1 mM inhibitor. From the text: The ability of AD57 to inhibit Bcr-Abl and T315I Bcr-Abl was examined in a cell based assay. The Bcr-Abl oncogene was transduced into BaF3 cells, rendering them IL-3-independent. “IL-3” refers to interleukin 3 which in human maps to gene locus 5q31.1, as known in the art. Recombinant IL-3 is available commercially. BaF3 is a hematopoietic cell line that is normally dependent on IL-3 for growth and proliferation. However, through expression of activated Bcr-Abl, the cells become transformed to an IL-3 independent state. In this assay, cell proliferation is directly correlated to the activity of Bcr-Abl. Wild-type Bcr-Abl, T315I Bcr-Abl, and parental BaF3 cells were treated with AD57 (Cmpd 5) at the indicated concentrations for two days. The parental BaF3 cells, but not the Bcr-Abl transduced cells, were grown in the presence of recombinant IL-3 during the time course of this experiment. After the two day treatment, cell proliferation was quantified using the dye Resazurin, which is converted into a fluorescently detectable form only when metabolized by living cells.
It is possible to inhibit the growth of BaF3 cells transduced with Bcr-Abl through non-specific inhibition mediated toxicity. Therefore, the effects of the inhibitors on the growth of parental BaF3 cells have also been measured.

[2] abbreviates: Table 1b, read-out: IC50 WT Abl.
[3] abbreviates: Table 1b, read-out: IC50 WT Src.
Setting [4] is: unphosphorylated kinase domain, 100 mM ATP, read-out: IC50 for c-Src.
Setting [5] is: Table 1a, read-out: IC50 WT Abl.
Where [6] appears, read: Table 1a, read-out: IC50 WT Src.

As for `CC(C)n1nc(-c2ccc(NC(=O)Nc3cccc(C(F)(F)F)c3)cc2)c2c(NC(=O)c3ccc(C(C)(C)C)cc3)ncnc21` [AD63], the IC50 (commonly the midpoint of a concentration-inhibition curve) was 1000 to 5000 nM on T338G Src (Table 1b); more than 5000 nM at Abl (setting [2]); less than 1000 nM at T315I Abl; more than 5000 nM at T315A Abl (Table 1b); more than 5000 nM on c-Src (setting [3]).

Take `CC(C)n1nc(-c2ccc(NC(=O)Nc3cccc(C(F)(F)F)c3)cc2)c2c(N)ncnc21` [AD57, 1-(4-(4-amino-1-isopropyl-1H-pyrazolo[3,4-d]pyrimidin-3-yl)phenyl)-3-(3-(trifluoromethyl)phenyl)urea]: the “inhibition of growth of Bcr-Abl BaF3 cells” value in assay [1] is given as “equally inhibits the growth”. For the same compound, the IC50 on T338G Src (Table 1b) is less than 1000 nM; at Abl (setting [2]) it was less than 1000 nM; on Abl (unphosphorylated kinase domain, 100 mM ATP, read-out: IC50 for Abl) it was 41 nM; on T315I Abl, less than 1000 nM; on c-Src (setting [3]), less than 1000 nM; on c-Src (setting [4]) it was 25 nM. In addition, in the assay on parental BaF3 cells, the “inhibition of growth of parental BaF3 cells” value is “but not parental BaF3 cells”.

Regarding `Cn1nc(Cc2cccc(NC(=O)Nc3cccc(C(F)(F)F)c3)c2)c2c(N)ncnc21` [AD16, 1-(3-((4-amino-1-methyl-1H-pyrazolo[3,4-d]pyrimidin-3-yl)methyl)phenyl)-3-(3-(trifluoromethyl)phenyl)urea], the half-inhibitory concentration (IC50) at T338G Src (Table 1a) was less than 1000 nM; on Abl (setting [5]), 1000 to 5000 nM; against T315A Abl (Table 1a), 1000 to 5000 nM; at c-Src (setting [6]), 1000 to 5000 nM; on c-Src (setting [4]), approximately 6200 nM.

In the case of `CC(C)n1nc(-c2ccc(NC(=O)Nc3cccc(C(F)(F)F)c3)cc2)c2c(NC(=O)C3CCCC3)ncnc21` [AD62], the half-maximal inhibitory concentration (IC50) at T338G Src (Table 1b), on Abl (setting [2]), against T315I Abl, at T315A Abl (Table 1b) and on c-Src (setting [3]) was less than 1000 nM throughout.

Turning to `CC(C)n1nc(Cc2cccc(NC(=O)Nc3cccc(C(F)(F)F)c3)c2)c2c(N)ncnc21` [AD36, 1-(3-((4-amino-1-isopropyl-1H-pyrazolo[3,4-d]pyrimidin-3-yl)methyl)phenyl)-3-(3-(trifluoromethyl)phenyl)urea], the IC50 against T338G Src (Table 1a) was less than 1000 nM; on Abl (setting [5]) it was 1000 to 5000 nM; on T315A Abl (Table 1a), less than 1000 nM; at c-Src (setting [6]), 1000 to 5000 nM.

Regarding `CC(C)n1nc(-c2ccc(NC(=O)Nc3ccccc3)cc2)c2c(N)ncnc21` [AD58], the IC50 at Abl (setting [2]), at T315I Abl and on c-Src (setting [3]) was less than 1000 nM throughout.

For the compound `Nc1ncnc2c1c(-c1ccc(NC(=O)Nc3cccc(C(F)(F)F)c3)cc1)nn2C1CCCC1` [AD60, 1-(4-(4-amino-1-cyclopentyl-1H-pyrazolo[3,4-d]pyrimidin-3-yl)phenyl)-3-(3-(trifluoromethyl)phenyl)urea], the IC50 on Abl (setting [2]) and at T315I Abl was less than 1000 nM in each case.

As for `CC(C)n1nc(-c2ccc(NC(=O)Nc3cccc(C(F)(F)F)c3)cc2)c2c(NC(=O)C3CC3)ncnc21` [AD61], the IC50 against T338G Src (Table 1b), at Abl (setting [2]), against T315I Abl, on T315A Abl (Table 1b) and at c-Src (setting [3]) was less than 1000 nM in each case.

For `Cn1nc(-c2ccc(NC(=O)Nc3cccc(C(F)(F)F)c3)cc2)c2c(N)ncnc21` [AD59, 1-(4-(4-amino-1-methyl-1H-pyrazolo[3,4-d]pyrimidin-3-yl)phenyl)-3-(3-(trifluoromethyl)phenyl)urea], the IC50 at Abl (setting [2]) and against T315I Abl was less than 1000 nM throughout.

The record behind these values is patent US8697709B2, “Fused ring heteroaryl kinase inhibitors” (The Regents of the University of California, priority 2008, dated 2014).
